ChEMBL document CHEMBL4312020, “Design, synthesis and biological evaluation of oseltamivir derivatives containing pyridyl group as potent inhibitors of neuraminidase for influenza A” (Eur J Med Chem, 2020)

Experiments:
[1] = biological target: Neuraminidase (Influenza A virus (A/Puerto Rico/8/1934(H1N1))) (UniProt P03468); conditions: Influenza A virus (A/Anhui/1/2005(H5N1)); at 100 µM
[2] = biological target: Neuraminidase (Influenza A virus (A/Puerto Rico/8/1934(H1N1))) (UniProt P03468); conditions: Influenza A virus (A/Anhui/1/2005(H5N1)); at 10 µM
[3] = biological target: Neuraminidase (Influenza A virus (A/Puerto Rico/8/1934(H1N1))) (UniProt P03468); conditions: Influenza A virus (A/Anhui/1/2005(H5N1)); at 1 µM
[4] = biological target: Neuraminidase (Influenza A virus (A/Puerto Rico/8/1934(H1N1)), UniProt P03468); assay: Inhibition of Influenza A virus A/WSN/1933(H1N1) Neuraminidase using MU-NANA as substrate preincubated for 30 mins followed by substrate addition and measured after 1 hr by spectrofluorometry relative to control
Neuraminidase (Influenza A virus (A/Puerto Rico/8/1934(H1N1)), UniProt P03468), sequence (P03468 whole entry): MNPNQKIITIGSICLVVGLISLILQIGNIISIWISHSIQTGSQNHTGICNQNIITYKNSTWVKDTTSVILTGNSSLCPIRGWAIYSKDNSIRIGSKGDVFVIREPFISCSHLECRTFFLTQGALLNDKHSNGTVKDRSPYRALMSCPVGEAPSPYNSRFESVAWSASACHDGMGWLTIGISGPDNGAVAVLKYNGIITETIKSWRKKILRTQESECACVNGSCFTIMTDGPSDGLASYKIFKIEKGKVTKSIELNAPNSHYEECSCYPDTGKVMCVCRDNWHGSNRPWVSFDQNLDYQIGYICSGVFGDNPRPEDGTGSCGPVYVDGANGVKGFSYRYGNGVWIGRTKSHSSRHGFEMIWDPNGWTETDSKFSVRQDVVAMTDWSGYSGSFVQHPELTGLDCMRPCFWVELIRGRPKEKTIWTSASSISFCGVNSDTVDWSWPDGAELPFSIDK

[5] = Inhibition of Influenza A virus A/Taiwan/3446/2002(H3N2) Neuraminidase using MU-NANA as substrate preincubated for 30 mins followed by substrate addition and measured after 1 hr by spectrofluorometry relative to control
in vitro [6] = conditions: rat, liver microsomes
[7] = Stability in human plasma assessed as compound remaining incubated for 60 mins by LC-MS/MS analysis; assay type: ADME, cell-free; conditions: read-out: Stability
[8] = Stability in human plasma assessed as compound remaining incubated for 10 mins by LC-MS/MS analysis; assay type: ADME, cell-free; conditions: read-out: Stability
[9] = Stability in human plasma assessed as compound remaining incubated for 0 mins by LC-MS/MS analysis; assay type: ADME, cell-free; conditions: read-out: Stability
[10] = Stability in human plasma assessed as compound remaining incubated for 120 mins by LC-MS/MS analysis; assay type: ADME, cell-free; conditions: read-out: Stability
[11] = Stability in human plasma assessed as compound remaining incubated for 30 mins by LC-MS/MS analysis; assay type: ADME, cell-free; conditions: read-out: Stability
Influenza A virus [12] = assay: microbe, parasite or virus in culture; conditions: (A/LiaoNing-ZhenXing/1109/2010(H1N1), MDCK, 72 h
Influenza A virus [13] = assay: microbe, parasite or virus in culture; conditions: A/Puerto Rico/8/1934(H1N1), MDCK, 72 h
[14] = Cmax in Sprague-Dawley rat at 50 mg/kg, po measured upto 24 hrs by LC-MS/MS analysis; assay type: ADME, organism-based; set-up: dose 50 mg/kg, route oral; conditions: in vivo
[15] = MRT in Sprague-Dawley rat at 10 mg/kg, iv measured upto 24 hrs by LC-MS/MS analysis; assay type: ADME, organism-based; conditions: in vivo
[16] = Tmax in Sprague-Dawley rat at 50 mg/kg, po measured upto 24 hrs by LC-MS/MS analysis; assay type: ADME, organism-based; conditions: in vivo
in vitro [17] = conditions: human, liver microsomes
[18] = AUC in Sprague-Dawley rat at 50 mg/kg, po measured upto 24 hrs by LC-MS/MS analysis; assay type: ADME, organism-based; set-up: dose 50 mg/kg, time < 24 hr, route oral; conditions: in vivo
[19] = Bioavailability in Sprague-Dawley rat at 10 mg/kg, iv measured upto 24 hrs by LC-MS/MS analysis; assay type: ADME, organism-based; conditions: in vivo
[20] = biological target: Neuraminidase (Influenza A virus (A/Puerto Rico/8/1934(H1N1)), UniProt P03468); set-up: species or system Influenza A virus (A/Anhui/1/2005(H5N1))
in vitro [21] = conditions: human, liver microsomes; remark: listed apart in the source
in vitro [22] = conditions: rat, liver microsomes; remark: listed apart in the source
[23] = Half life in Sprague-Dawley rat at 50 mg/kg, po measured upto 24 hrs by LC-MS/MS analysis; assay type: ADME, organism-based; conditions: in vivo
[24] = Half life in Sprague-Dawley rat at 10 mg/kg, iv measured upto 24 hrs by LC-MS/MS analysis; assay type: ADME, organism-based; conditions: in vivo
[25] = AUC in Sprague-Dawley rat at 10 mg/kg, iv measured upto 24 hrs by LC-MS/MS analysis; assay type: ADME, organism-based; set-up: dose 10 mg/kg, time < 24 hr, route intravenous; conditions: in vivo
[26] = Oral bioavailability in Sprague-Dawley rat at 50 mg/kg measured upto 24 hrs by LC-MS/MS analysis; assay type: ADME, organism-based; conditions: in vivo
[27] = MRT in Sprague-Dawley rat at 50 mg/kg, po measured upto 24 hrs by LC-MS/MS analysis; assay type: ADME, organism-based; conditions: in vivo
in vitro [28] = conditions: dog, MDCK cells

Neuraminidase (Influenza A virus (A/Puerto Rico/8/1934(H1N1))), sequence (P03468 whole entry): as above

CCC(CC)O[C@@H]1C=C(C(=O)O)C[C@H](Nc2ncc(Br)cc2NC(=O)c2ccccc2)[C@H]1NC(C)=O
inhibition [1]: 36.9%

CCC(CC)O[C@@H]1C=C(C(=O)O)C[C@H](Nc2ccc(N)cn2)[C@H]1NC(C)=O
inhibition [2]: 30%
inhibition [1]: 67.7%

CCC(CC)O[C@@H]1C=C(C(=O)O)C[C@H](Nc2nc(OC)ccc2NC(C)=O)[C@H]1NC(C)=O
inhibition [3]: 10.1%
inhibition [1]: 75.7%

CCC(CC)O[C@@H]1C=C(C(=O)O)C[C@H](Nc2ncccc2NC(=O)c2ccccc2)[C@H]1NC(C)=O
inhibition [1]: 7.6%

CC(=O)N[C@H]1[C@H]([C@H](O)[C@H](O)CO)OC(C(=O)O)=C[C@@H]1NC(=N)NC(=O)CSc1cccc2ccccc12
IC50 [4]: 0.0023 µM
IC50 [5]: 0.0029 µM

CCC(CC)O[C@@H]1C=C(C(=O)O)C[C@H](Nc2ncc(Br)cc2NC(=O)C(C)C)[C@H]1NC(C)=O
inhibition [3]: 19.1%
inhibition [1]: 79.3%

CCCC(=O)Nc1cccnc1N[C@H]1CC(C(=O)O)=C[C@@H](OC(CC)CC)[C@@H]1NC(C)=O
inhibition [1]: 22.1%

CCC(CC)O[C@@H]1C=C(C(=O)O)C[C@H](Nc2nc(OC)ccc2N)[C@H]1NC(C)=O
inhibition [2]: 41.3%
inhibition [1]: 81.4%

CCC(CC)O[C@@H]1C=C(C(=O)O)C[C@H](Nc2ncc(Br)cc2N)[C@H]1NC(C)=O
inhibition [2]: 26.8%
inhibition [1]: 55.9%

CCC(CC)O[C@@H]1C=C(C(=O)O)C[C@H](Nc2ccc([N+](=O)[O-])cn2)[C@H]1NC(C)=O
inhibition [3]: 8.9%
inhibition [1]: 87.1%

O=C(O)Cc1ccccc1Nc1c(Cl)cccc1Cl [DICLOFENAC]
half-life at 1 h (in vitro [6]): 17.1 min

CCC(CC)O[C@@H]1C=C(C(=O)O)C[C@H](Nc2ccc(NC(C)=O)cn2)[C@H]1NC(C)=O
inhibition [3]: 9.6%
inhibition [1]: 38.7%

CCC(CC)O[C@@H]1C=C(C(=O)O)C[C@H](Nc2ncc(C)cc2N)[C@H]1NC(C)=O
inhibition [2]: 25.9%
inhibition [1]: 46.8%

CCC(CC)O[C@@H]1C=C(C(=O)O)C[C@H](Nc2nc(OC)ccc2[N+](=O)[O-])[C@H]1NC(C)=O
inhibition [3]: 27.9%
inhibition [1]: 82.9%

CC(C)[N+](C)(CCOC(=O)C1c2ccccc2Oc2ccccc21)C(C)C [PROPANTHELINE BROMIDE]
remaining at 1 h [7]: 10.1%
remaining at 10 min [8]: 68.2%
remaining at 0 h [9]: 100%
remaining at 2 h [10]: 0.7%
remaining at 0.5 h [11]: 34.8%

CCC(CC)O[C@@H]1C=C(C(=O)O)C[C@H](Nc2ncccc2[N+](=O)[O-])[C@H]1NC(C)=O
inhibition [3]: 9.1%
inhibition [1]: 76.1%

CCC(CC)O[C@@H]1C=C(C(=O)O)C[C@H](Nc2ncc(Br)cc2NC(C)=O)[C@H]1NC(C)=O
inhibition [1]: 46.7%

CCC(CC)O[C@@H]1C=C(C(=O)O)C[C@H](Nc2ncccc2N)[C@H]1NC(C)=O
EC50 (Influenza A virus [12]): 14.3 µM
inhibition [2]: 87.6%
EC50 (Influenza A virus [13]): 12.7 µM
Cmax [14]: 253 ng/mL
half-life at 1 h (in vitro [6]): > 145 min
MRT [15]: 11.4 min
remaining at 1 h [7]: 113%
Tmax [16]: 19.8 min
half-life at 1 h (in vitro [17]): > 145 min
AUC at 24 h [18]: 358 ng·h/mL
F [19]: 100%
remaining at 10 min [8]: 95.1%
IC50 [20]: 0.32 µM
remaining at 1 h (in vitro [21]): 87.5%
remaining at 1 h (in vitro [22]): 85.5%
remaining at 0 h [9]: 100%
half-life [23]: 94.2 min
half-life [24]: 30.6 min
AUC at 24 h [25]: 4540 ng·h/mL
inhibition [1]: 92.4%
bioavailability [26]: 1.58%
MRT [27]: 127 min
remaining at 2 h [10]: 102%
remaining at 0.5 h [11]: 103%

CCC(CC)O[C@@H]1C=C(C(=O)O)C[C@H](Nc2nc(OC)ccc2NC(=O)c2ccccc2)[C@H]1NC(C)=O
inhibition [1]: 70.6%

CCC(CC)O[C@@H]1C=C(C(=O)O)C[C@H](N)[C@H]1NC(C)=O [OSELTAMIVIR CARBOXYLATE]
EC50 (Influenza A virus [12]): 67.5 µM
EC50 (Influenza A virus [13]): 2.49 µM
CC50 at 72 h (in vitro [28]): > 1000 µM

CCC(CC)O[C@@H]1C=C(C(=O)O)C[C@H](Nc2nccc(C)c2N)[C@H]1NC(C)=O
inhibition [2]: 10.7%
inhibition [1]: 24.2%

CCCC(=O)Nc1cc(Br)cnc1N[C@H]1CC(C(=O)O)=C[C@@H](OC(CC)CC)[C@@H]1NC(C)=O
inhibition [3]: 6.8%
inhibition [1]: 41.5%

CCC(=O)Nc1ccc(OC)nc1N[C@H]1CC(C(=O)O)=C[C@@H](OC(CC)CC)[C@@H]1NC(C)=O
inhibition [1]: 10.7%

CCC(CC)O[C@@H]1C=C(C(=O)O)C[C@H](Nc2ccc(NC(=O)c3ccccc3)cn2)[C@H]1NC(C)=O
inhibition [1]: 18.6%

CCCC(=O)Nc1ccc(OC)nc1N[C@H]1CC(C(=O)O)=C[C@@H](OC(CC)CC)[C@@H]1NC(C)=O
inhibition [3]: 16%
inhibition [1]: 76.3%

CCC(CC)O[C@@H]1C=C(C(=O)O)C[C@H](Nc2ncc(Br)cc2[N+](=O)[O-])[C@H]1NC(C)=O
inhibition [1]: 54.3%
